Measured values reported in patent US5164296A, “Assay methods involving ouabain” (priority 1990, dated 1992).
pKd: −log10 of the molar value.

Legend:
[1] = biological target: T1, washed human red blood cells (Homo sapiens, UniProt P05023); assay: Inhibition of ouabain-sensitive ^86 Rb uptake by washed human red blood cells; assay type: cell-based
T1 construct: washed human red blood cells obtained by venipuncture; endogenous in cells; host or cells: washed human red blood cells (venipuncture)
Protocol: Fractions from the column were assayed for inhibition of ouabain-sensitive ^86 Rb uptake by washed human red blood cells obtained by venipuncture. This assay was used as an index of sodium transport activity (Hamlyn, J.M. et al, J. Biol. Chem., 264:7395-7404 (1989)).
More specifically, freshly washed cells were incubated for 2 hr at 37° C. (16% final hematocrit) in a final volume of 150 μl of flux buffer comprising 150 mM NaCl, 2.0 mM […] containing tracer amounts of ^86 Rb (DuPont--New England Nuclesr), 1.0 mM MgCl2, 1.0 mM Na2 HPO4, 2.0 mM CaCl2, 5.0 mM glucose and 20 mM HEPES-Tris (pH 7.4) (hereinafter "flux fubber"). Incubations were initiated by addition of column fractions to the cells. Aliquots were removed at various times and mixed with ice-cold flux buffer lacking ^86 Rb to quench the reactions. The quenched reactions were applied to a silicone oil cushion (Hysol XF1792B, Dexter Corp., Olean, N.Y.) in microcentrifuge tubes and centrifuged at 800×g for 10 min at 4° C. The red cell pellet was cut from deep-frozen tubes and trapped ^86 Rb was determined by γ-counting. Flux data were expressed as nmol of Rb uptake/10^8 cells. In each case, a value of 1.11×10^13 cells/liter was used to convert packed cell volumes to cell number for the flux data calculations. Ouabain-insensitive ^86 Rb uptake was estimated in parallel experiments by inclusion of 1.0 mM ouabain in the flux buffer. Ouabain-sensitive ^86 Rb uptake was taken as the total uptake minus that obtained in the presence of 1.0 mM ouabain.
The inhibition of ouabain-sensitive uptake of ^86 Rb was carried out as described above.

(Na^+ +K^+)ATPase [2] = biological target: T2, (Na^+ +K^+)ATPase (Canis lupus familiaris, UniProt P50997); assay: Competition for ^3 H-ouabain binding to purified (Na^+ +K^+)ATPase; parameters: species or system dog; conditions: competition for ^3 H-ouabain binding
T2 construct: (Na^+ +K^+)ATPase was purified from the outer medulla of dog kidney; from tissue; host or cells: dog kidney outer medulla, purified membrane enzyme
Protocol: More specifically, (Na^+ +K^+)ATPase was purified from the outer medulla of dog kidney using the angle rotor procedure (Jorgensen, P.L., Biochim. Biophys. Acta, 356:36-52 (1974)) and stored frozen at -60° C. at 1.0 mg/ml in 25 mM imidazole-HCl (pH 7.5) and 1.0 mM EDTA, in small aliquots. (Na^+ +K^+)ATPase activity was determined at 37° C. from rate measurements in 1.0 ml of coupled optical assay mixture comprising 20 mM KCl, 100 mM NaCl, 4.5 mM MgSO4, 5.0 mM EGTA, 3.0 mM ATP-Na2, 1.2 mM phosphoenol-pyruvate-tricyclohexylammonium, 0.3 mM NADH, 100 mM TES-Tris (ph 7.4), 5.0 units of lactate dehydrogenase, and 5.0 units of pyruvate kinase (Hamlyn, J.M. et al, Nature, 300:650-652 (1982)). (Na^+ +K^+)ATPase activity was 99% ouabain-inhibitable with activities of 10-18 μmol/min/mg of membrane protein. Maximally effective concentrations of digitalis-like activity had no effect on the enzymatic components of the coupled optical assay as determined by inspection of rates in response to addition of 20-50 μM ADP. The maximal capacity of the coupled optical assay was at least 500-2000 fold greater than the typical maximal hydrolytic rate of the (Na^+ +K^+)ATPase and was not rate limiting under any assay condition described herein.
Competition for ^3 H-ouabain (Amersham Corp. or DuPont-New England Nuclear) binding was carried out in 670 μl of binding buffer comprising, in final concentrations, 10 mM TES-Tris (pH 7.4), 0.5 mM EDTA, 5.0 mM MgCl2 and 5.0 mM Na2 HPO4 (hereinafter "binding buffer") and 50 nM ouabain containing ^3 H-ouabain tracer, and including the unknown sample. Binding was initiated by addition of 0.1-2 μg of purified (Na^+ +K^+)ATPase and the reaction performed for 2 hr at 37° C. […] Trapped ^3 H-ouabain was determined by scintillation counting, following 12 hr of soaking the filters in 4.0 ml of Beckman Ready Protein ™ scintillation cocktail (Beckman, Palo Alto, Calif.). […] All binding data were corrected for quench, and specific binding was expressed as pmol/mg of enzyme protein. […]

[3] = tested on: antibodies having binding specificity for ouabain; assay: Competition ELISA for binding to antibodies having binding specificity for ouabain; parameters: species or system rabbit
Protocol: The competition for binding to antibodies having binding specificity for ouabain was carried out by employing polyclonal antisera having titers >10,000 generated against ouabain in rabbits as described in Example 2 below. […] A competition ELISA was carried out as follows:
Microtiter plates were coated with 50 μl of a 1.0 ng/ml solution of Conjugate 4. Following washes with wash buffer comprising 0.9% (w/v) NaCl and 0.5% (v/v) Tween 20 (hereinafter "wash buffer"), residual sites were blocked with buffer comprising 136 mM NaCl, 1.46 mM KH2 PO4, 0.8 mM Na2 HPO4, 0.028 mM thimerosal, 0.5% (v/v) Tween 20, and 1.0% (w/v) BSA (pH 7.4). Known amounts of free ouabain or unknown samples were introduced followed by the addition of ouabain antisera at an overall dilution of 1:2×10^6. Incubations at 23° C. for 1 hr were terminated by repeated washing with wash buffer. Subsequently, a second incubation at […] for 1hr was performed with a 1:10^3 dilution of goat anti-rabbit IgG-peroxidase conjugate (Boehringer Mannheim, Indianapolis, Ind.). Following extensive washing with wash buffer, equal parts of 3, 3', 5, 5'-tetramethylbenzindine and hydrogen peroxide (Kirkegaard and Perry, Gaitheresburg, Md.) were added and incubated at 23° C. for 15 min. Color development was terminated by addition of 1.0 M H3 PO4 and read at 450 nm with a plate reader. […] Each data point is the mean ± S.E.M. All lines were fitted by nonlinear regression to a sigmoidal function.

(Na^+ +K^+)ATPase [4] = conditions: type II-phosphorylating conditions; cited from earlier work
[5] = 6.0 N HCl at 110° C.; cited from earlier work
[6] = 50 ml of plasma equivalents from the UV peak at 32 min

Which “effect on ouabain-insensitive uptake” value [1, 6] does the source give for `CC1OC(OC2CC(O)C3(CO)C4C(O)CC5(C)C(C6=CC(=O)OC6)CCC5(O)C4CCC3(O)C2)C(O)C(O)C1O` (stereo not shown) [human ouabain] here?
Its value is “no effect”.

What about the “inhibition of ouabain-sensitive ^86 Rb uptake” value [1, 6] of the same compound?
The value was 80%.

What about the Hill coefficient ([1]; inhibition of ouabain-sensitive uptake of ^86 Rb) of the same compound?
Its Hill coefficient is -0.99.

And the Hill coefficient ((Na^+ +K^+)ATPase [2])?
Its Hill coefficient is -0.97.

What about the pKd ((Na^+ +K^+)ATPase [2]; read-out: calculated apparent Kd value, 50 nM ouabain, 2 hr at 37° C.) of the same compound?
The pKd was 8.11.

What about the Hill coefficient ([3]; competition ELISA) of the same compound?
Its Hill coefficient is -0.65.

What about the pKd ([3]; competition ELISA, antisera 1:2×10^6, read-out: calculated apparent Kd value) of the same compound?
The pKd was 8.80.

And the “cross-reaction with antibodies having binding specificity for ouabain” value ([3]; within experimental error)?
Its value is 100%.

And the “affinity higher than that of ouabain” value ((Na^+ +K^+)ATPase [4])?
The value was 12-25 fold.

And the “rate of loss of inhibitory activity compared with ouabain” value [5]?
Its value is “significantly greater”.
